Source: PubChem BioAssay (NCI)
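48-hour exposure; five concentrations; linearly interpolated endpoints. GI50 = concentration required for 50% inhibition of growth. TGI: total growth inhibition.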

Key:
Test in all cases: NCI tumour cell line growth inhibition, 48 h
SK-OV-3 ovarian = system: SK-OV-3 ovarian
MCF7 breast = system: MCF7 breast
OVCAR-8 ovarian = system: OVCAR-8 ovarian
MDA-MB-231 breast = system: MDA-MB-231 breast
SK-MEL-2 melanoma = system: SK-MEL-2 melanoma
SW-620 colon = system: SW-620 colon
RPMI-8226 leukemia = system: RPMI-8226 leukemia
OVCAR-4 ovarian = system: OVCAR-4 ovarian
OVCAR-3 ovarian = system: OVCAR-3 ovarian
KM12 colon = system: KM12 colon

For `COc1ccc2c3c([nH]c2c1)[C@H](C=C(C)C)N1C(=O)[C@@H]2CCCN2C(=O)[C@@H]1C3`, the TGI (SK-OV-3 ovarian) was 95.9 µM, the TGI (MCF7 breast) was > 100 µM and the TGI (OVCAR-8 ovarian) was > 100 µM. For the same compound, the TGI (MDA-MB-231 breast) was > 100 µM, the TGI (SK-MEL-2 melanoma) was > 100 µM and the TGI (SW-620 colon) was > 100 µM. For the same compound, the TGI (RPMI-8226 leukemia) was > 100 µM, the TGI (OVCAR-4 ovarian) was > 100 µM and the TGI (OVCAR-3 ovarian) was > 100 µM. For the same compound, the TGI (KM12 colon) was > 100 µM.
In the case of `Nc1ccc(Cc2ccc(N)c(C(=O)O)c2)cc1C(=O)O`, the TGI (SK-OV-3 ovarian) is reported as > 100 µM, the TGI (MCF7 breast) is reported as > 100 µM and the TGI (OVCAR-8 ovarian) is reported as > 100 µM. The TGI (MDA-MB-231 breast) was > 100 µM, the TGI (SK-MEL-2 melanoma) was > 100 µM and the TGI (SW-620 colon) was > 100 µM. The TGI (RPMI-8226 leukemia) was > 100 µM, the TGI (OVCAR-4 ovarian) was > 100 µM and the TGI (OVCAR-3 ovarian) was > 100 µM. For the same compound, the TGI (KM12 colon) was > 100 µM.
With `COc1cc2cc[n+](C)c(Cc3ccc(Oc4cc(Cc5c6cc(OC)c(OC)cc6cc[n+]5C)ccc4OC)cc3)c2cc1OC` the TGI (SK-OV-3 ovarian) was > 100 µM, the TGI (MCF7 breast) was > 100 µM and the TGI (OVCAR-8 ovarian) was > 100 µM. For the same compound, the TGI (MDA-MB-231 breast) was > 100 µM, the TGI (SK-MEL-2 melanoma) was > 100 µM and the TGI (SW-620 colon) was > 100 µM. The TGI (RPMI-8226 leukemia) was > 100 µM, the TGI (OVCAR-4 ovarian) was > 100 µM and the TGI (OVCAR-3 ovarian) was > 100 µM. For the same compound, the TGI (KM12 colon) was > 100 µM.
In the case of `CCCCSCCC(N)P(=O)(O)O` (configuration not stated), the TGI (SK-OV-3 ovarian) is reported as > 100 µM, the TGI (MCF7 breast) is reported as > 100 µM and the TGI (OVCAR-8 ovarian) is reported as > 100 µM. For the same compound, the TGI (MDA-MB-231 breast) was > 100 µM, the TGI (SK-MEL-2 melanoma) was > 100 µM and the TGI (SW-620 colon) was > 100 µM. For the same compound, the TGI (RPMI-8226 leukemia) was > 100 µM, the TGI (OVCAR-4 ovarian) was > 100 µM and the TGI (OVCAR-3 ovarian) was > 100 µM.
`O=S(C(c1ccccc1)=P(c1ccccc1)(c1ccccc1)c1ccccc1)c1ccc(Cl)cc1` (configuration not stated) was tested, and the TGI (SK-OV-3 ovarian) was 50.6 µM, the TGI (MCF7 breast) was > 100 µM and the TGI (OVCAR-8 ovarian) was > 100 µM. The TGI (MDA-MB-231 breast) was 70 µM, the TGI (SK-MEL-2 melanoma) was 45.9 µM and the TGI (SW-620 colon) was > 100 µM. For the same compound, the TGI (RPMI-8226 leukemia) was > 100 µM, the TGI (OVCAR-4 ovarian) was 98.3 µM and the TGI (OVCAR-3 ovarian) was > 100 µM. The TGI (KM12 colon) was 57.2 µM.
`Cc1ccc(S(=O)(=O)Nc2cc(=O)[nH]c3c2CCC3)cc1` was tested, and the TGI (SK-OV-3 ovarian) was > 100 µM, the TGI (MCF7 breast) was > 100 µM and the TGI (OVCAR-8 ovarian) was > 100 µM. For the same compound, the TGI (MDA-MB-231 breast) was > 100 µM, the TGI (SK-MEL-2 melanoma) was > 100 µM and the TGI (SW-620 colon) was > 100 µM. For the same compound, the TGI (RPMI-8226 leukemia) was > 100 µM, the TGI (OVCAR-4 ovarian) was > 100 µM and the TGI (OVCAR-3 ovarian) was > 100 µM. The TGI (KM12 colon) was > 100 µM.
With `C[C@]12O[C@@]3(C)O[C@@]3(C)[C@]3(C)O[C@]3(C)[C@@]1(C)O2` the TGI (SK-OV-3 ovarian) was > 100 µM, the TGI (MCF7 breast) was > 100 µM and the TGI (OVCAR-8 ovarian) was > 100 µM. For the same compound, the TGI (MDA-MB-231 breast) was > 100 µM, the TGI (SK-MEL-2 melanoma) was > 100 µM and the TGI (OVCAR-4 ovarian) was > 100 µM. The TGI (KM12 colon) was > 100 µM.
For `O=C(NN1CCCCC1)c1cc2cc(CCl)ccc2oc1=O`, the TGI (SK-OV-3 ovarian) was 42.6 µM, the TGI (MCF7 breast) was > 100 µM and the TGI (OVCAR-8 ovarian) was 54.8 µM. The TGI (MDA-MB-231 breast) was 38.6 µM, the TGI (SK-MEL-2 melanoma) was 28.9 µM and the TGI (SW-620 colon) was 60.7 µM. The TGI (RPMI-8226 leukemia) was 59 µM, the TGI (OVCAR-4 ovarian) was 36.4 µM and the TGI (OVCAR-3 ovarian) was 39.3 µM. The TGI (KM12 colon) was 49.4 µM.
With `CCCC(=O)Nc1cc(/C=C/C(=O)N2CC(CCl)c3c2cc(OC(C)=O)c2[nH]cc(C)c32)n(C)c1` (configuration not stated) the TGI (SK-OV-3 ovarian) was 0.0691 µM, the TGI (MCF7 breast) was > 0.0759 µM and the TGI (OVCAR-8 ovarian) was 0.000858 µM. For the same compound, the TGI (MDA-MB-231 breast) was > 0.25 µM, the TGI (SK-MEL-2 melanoma) was 0.000121 µM and the TGI (SW-620 colon) was > 0.25 µM. For the same compound, the TGI (RPMI-8226 leukemia) was 0.00762 µM, the TGI (OVCAR-4 ovarian) was 0.0213 µM and the TGI (KM12 colon) was 0.00247 µM.
`C=CCc1cccc(/C(O)=C/C(=O)/C=C/c2ccccc2Cl)c1O` was tested, and the TGI (SK-OV-3 ovarian) was 97.1 µM, the TGI (MCF7 breast) was > 100 µM and the TGI (OVCAR-8 ovarian) was 25.5 µM. The TGI (MDA-MB-231 breast) was > 93.6 µM, the TGI (SK-MEL-2 melanoma) was 26.2 µM and the TGI (SW-620 colon) was 90.1 µM. It also gave a TGI (RPMI-8226 leukemia) of 36.5 µM, a TGI (OVCAR-3 ovarian) of 76.3 µM and a TGI (KM12 colon) of 97 µM.
With `CN(CCCN1CCCC1)CCCN(C)C(=O)Cc1ccc(Cl)c(Cl)c1` the TGI (SK-OV-3 ovarian) was > 89.6 µM, the TGI (MCF7 breast) was 31.6 µM and the TGI (OVCAR-8 ovarian) was > 100 µM. It also gave a TGI (MDA-MB-231 breast) of 31.9 µM, a TGI (SK-MEL-2 melanoma) of 28.2 µM and a TGI (SW-620 colon) of 50.7 µM. For the same compound, the TGI (RPMI-8226 leukemia) was 22.4 µM, the TGI (OVCAR-4 ovarian) was > 96.1 µM and the TGI (OVCAR-3 ovarian) was > 88.4 µM. The TGI (KM12 colon) was 60.5 µM.
`CCOC(=O)c1cccc(N=Nc2ncc(/C=C/C(=O)OC)[nH]2)c1` was tested, and the TGI (SK-OV-3 ovarian) was > 100 µM, the TGI (MCF7 breast) was 86.2 µM and the TGI (OVCAR-8 ovarian) was 63.6 µM. The TGI (MDA-MB-231 breast) was > 100 µM, the TGI (SK-MEL-2 melanoma) was > 100 µM and the TGI (SW-620 colon) was > 100 µM. The TGI (RPMI-8226 leukemia) was 40.5 µM, the TGI (OVCAR-4 ovarian) was > 100 µM and the TGI (OVCAR-3 ovarian) was 71.1 µM. It also gave a TGI (KM12 colon) of 82.2 µM.
For `COc1ccc(-n2nnc3c(C#N)c(C)c(-c4ccccc4)n3c2=O)cc1`, the TGI (SK-OV-3 ovarian) was > 22.4 µM, the TGI (MCF7 breast) was > 100 µM and the TGI (OVCAR-8 ovarian) was > 70.8 µM. The TGI (MDA-MB-231 breast) was > 79.1 µM, the TGI (SK-MEL-2 melanoma) was > 100 µM and the TGI (SW-620 colon) was > 100 µM. For the same compound, the TGI (RPMI-8226 leukemia) was > 100 µM, the TGI (OVCAR-4 ovarian) was > 100 µM and the TGI (OVCAR-3 ovarian) was 44.6 µM. For the same compound, the TGI (KM12 colon) was > 100 µM.
With `CC(NC(=O)c1ccc(OP(=O)(OCc2ccc([N+](=O)[O-])o2)N(C)CCCCCl)cc1)c1ccc(OCC2CCCCC2)c(C(N)=O)c1` (configuration not stated) the TGI (SK-OV-3 ovarian) was > 100 µM, the TGI (MCF7 breast) was 17.1 µM and the TGI (OVCAR-8 ovarian) was > 74.4 µM. The TGI (MDA-MB-231 breast) was 9.66 µM, the TGI (SK-MEL-2 melanoma) was 14.5 µM and the TGI (SW-620 colon) was > 43.1 µM. The TGI (RPMI-8226 leukemia) was 3.24 µM, the TGI (OVCAR-4 ovarian) was 17.7 µM and the TGI (OVCAR-3 ovarian) was 15.7 µM. It also gave a TGI (KM12 colon) of 13.5 µM.
`COc1cc(/C=C2\CC3C4CC[C@H]5C[C@@H](O)CC[C@]5(C)C4CC[C@]3(C)\C2=N\O)cc(OC)c1OC` (some centres not stated) was tested, and the TGI (SK-OV-3 ovarian) was 72.3 µM, the TGI (MCF7 breast) was 26.8 µM and the TGI (OVCAR-8 ovarian) was > 100 µM. For the same compound, the TGI (MDA-MB-231 breast) was 59.7 µM, the TGI (SK-MEL-2 melanoma) was 31.7 µM and the TGI (SW-620 colon) was > 100 µM. For the same compound, the TGI (RPMI-8226 leukemia) was 23.4 µM, the TGI (OVCAR-4 ovarian) was 37.9 µM and the TGI (OVCAR-3 ovarian) was 11 µM. It also gave a TGI (KM12 colon) of 56.7 µM.
With `CS(=O)(=O)Nc1ccc(NCc2cnc3ccc4[nH]cccc4c23)cc1` the TGI (SK-OV-3 ovarian) was > 100 µM, the TGI (MCF7 breast) was 94.9 µM and the TGI (OVCAR-8 ovarian) was > 100 µM. The TGI (MDA-MB-231 breast) was 97.4 µM, the TGI (SK-MEL-2 melanoma) was 32 µM and the TGI (SW-620 colon) was > 100 µM. The TGI (RPMI-8226 leukemia) was 31 µM, the TGI (OVCAR-4 ovarian) was 78.4 µM and the TGI (OVCAR-3 ovarian) was 92.9 µM. For the same compound, the TGI (KM12 colon) was 36.7 µM.
With `NC(N)=N/N=C/c1c(-c2cccs2)nc2n1CCS2` the GI50 (SK-OV-3 ovarian) was > 100 µM, the TGI (SK-OV-3 ovarian) was > 100 µM and the GI50 (MCF7 breast) was 17.6 µM. For the same compound, the TGI (MCF7 breast) was 35.1 µM, the GI50 (OVCAR-8 ovarian) was 46.5 µM and the TGI (OVCAR-8 ovarian) was > 100 µM. The GI50 (MDA-MB-231 breast) was 13.7 µM, the TGI (MDA-MB-231 breast) was 33.4 µM and the GI50 (SK-MEL-2 melanoma) was 43.3 µM. For the same compound, the TGI (SK-MEL-2 melanoma) was > 100 µM, the GI50 (SW-620 colon) was 17.9 µM and the TGI (SW-620 colon) was 41.7 µM. The GI50 (RPMI-8226 leukemia) was 18.6 µM, the TGI (RPMI-8226 leukemia) was 39.9 µM and the GI50 (OVCAR-3 ovarian) was 15.5 µM. The TGI (OVCAR-3 ovarian) was 32.7 µM, the GI50 (KM12 colon) was 14.2 µM and the TGI (KM12 colon) was 29.2 µM.
